Test results as given in PubChem BioAssay AID1259407 (Chemical Carcinogenesis Research Information System (CCRIS), 2018).
Calls of active or inactive are those of the source. No rule for the calls is given here.

Tested on: CCRIS mutagenicity, Ames/micronucleus/aberration tests
Assay: CCRIS mutagenicity studies
[1] = Test System: AMES SALMONELLA TYPHIMURIUM, Strain/Indicator: TA98, Metabolic Activation: HAMSTER, LIVER, S-9, AROCLOR 1254 (10%), Method: PREINCUBATION
[2] = Test System: AMES SALMONELLA TYPHIMURIUM, Strain/Indicator: TA98, Metabolic Activation: NONE, Method: PREINCUBATION
[3] = Test System: AMES SALMONELLA TYPHIMURIUM, Strain/Indicator: TA98, Metabolic Activation: RAT, LIVER, S-9, AROCLOR 1254 (10%), Method: PREINCUBATION
[4] = Test System: AMES SALMONELLA TYPHIMURIUM, Strain/Indicator: TA100, Metabolic Activation: HAMSTER, LIVER, S-9, AROCLOR 1254 (10%), Method: PREINCUBATION
[5] = Test System: AMES SALMONELLA TYPHIMURIUM, Strain/Indicator: TA100, Metabolic Activation: NONE, Method: PREINCUBATION
[6] = Test System: AMES SALMONELLA TYPHIMURIUM, Strain/Indicator: TA100, Metabolic Activation: RAT, LIVER, S-9, AROCLOR 1254 (10%), Method: PREINCUBATION
[7] = Test System: AMES SALMONELLA TYPHIMURIUM, Strain/Indicator: TA1535, Metabolic Activation: HAMSTER, LIVER, S-9, AROCLOR 1254 (10%), Method: PREINCUBATION
[8] = Test System: AMES SALMONELLA TYPHIMURIUM, Strain/Indicator: TA1535, Metabolic Activation: NONE, Method: PREINCUBATION
[9] = Test System: AMES SALMONELLA TYPHIMURIUM, Strain/Indicator: TA1535, Metabolic Activation: RAT, LIVER, S-9, AROCLOR 1254 (10%), Method: PREINCUBATION
[10] = Test System: AMES SALMONELLA TYPHIMURIUM, Strain/Indicator: TA1537, Metabolic Activation: HAMSTER, LIVER, S-9, AROCLOR 1254 (10%), Method: PREINCUBATION
[11] = Test System: AMES SALMONELLA TYPHIMURIUM, Strain/Indicator: TA1537, Metabolic Activation: NONE, Method: PREINCUBATION
[12] = Test System: AMES SALMONELLA TYPHIMURIUM, Strain/Indicator: TA1537, Metabolic Activation: RAT, LIVER, S-9, AROCLOR 1254 (10%), Method: PREINCUBATION
[13] = Test System: MOUSE LYMPHOMA, Strain/Indicator: L5178Y (TK+/TK-), Metabolic Activation: NONE, Method: SUSPENSION/PLATE
[14] = Test System: MOUSE LYMPHOMA, Strain/Indicator: L5178Y (TK+/TK-), Metabolic Activation: RAT, LIVER, S-9, AROCLOR 1254, Method: SUSPENSION/PLATE
[15] = Test System: AMES SALMONELLA TYPHIMURIUM, Strain/Indicator: TA97, Metabolic Activation: NONE, Method: STANDARD PLATE
[16] = Test System: AMES SALMONELLA TYPHIMURIUM, Strain/Indicator: TA97, Metabolic Activation: RAT, LIVER, S-9, AROCLOR 1254, Method: STANDARD PLATE
[17] = Test System: AMES SALMONELLA TYPHIMURIUM, Strain/Indicator: TA98, Metabolic Activation: RAT, LIVER, S-9, AROCLOR 1254, Method: STANDARD PLATE
[18] = Test System: AMES SALMONELLA TYPHIMURIUM, Strain/Indicator: TA100, Metabolic Activation: RAT, LIVER, S-9, AROCLOR 1254, Method: STANDARD PLATE
[19] = Test System: AMES SALMONELLA TYPHIMURIUM, Strain/Indicator: TA1535, Metabolic Activation: NONE, Method: STANDARD PLATE
[20] = Test System: AMES SALMONELLA TYPHIMURIUM, Strain/Indicator: TA1535, Metabolic Activation: RAT, LIVER, S-9, AROCLOR 1254, Method: STANDARD PLATE
[21] = Test System: AMES SALMONELLA TYPHIMURIUM, Strain/Indicator: TA1537, Metabolic Activation: NONE, Method: STANDARD PLATE

| Compound | mutagenic call [1] | mutagenic call [2] | mutagenic call [3] | mutagenic call [4] | mutagenic call [5] | mutagenic call [6] | mutagenic call [7] | mutagenic call [8] | mutagenic call [9] | mutagenic call [10] | mutagenic call [11] | mutagenic call [12] | mutagenic call [13] | mutagenic call [14] | mutagenic call [15] | mutagenic call [16] | mutagenic call [17] | mutagenic call [18] | mutagenic call [19] | mutagenic call [20] | other results |
| --- | --- | --- | --- | --- | --- | --- | --- | --- | --- | --- | --- | --- | --- | --- | --- | --- | --- | --- | --- | --- | --- |
| CCCCC(CC)COC(=O)C(C#N)=C(c1ccccc1)c1ccccc1 (stereo not drawn) | inactive; negative | inactive; negative | inactive; negative | inactive; negative | inactive; negative | inactive; negative | inactive; negative | inactive; negative | inactive; negative | inactive; negative | inactive; negative | inactive; negative | inactive; negative | inactive; negative | – | – | – | – | – | – | – |
| Cc1ccc(N(SC(F)(Cl)Cl)S(=O)(=O)N(C)C)cc1 | – | – | – | – | – | – | – | – | – | – | – | – | – | – | – | – | – | – | – | – | mutagenic call (End Point: In vivo chromosomal aberrations, Test System: Peripheral blood lymphocytes, Species: Sheep, Strain/Sex: Merino/female, Route: Intrarumen): active; positive (structural changes); mutagenic call (End Point: In vivo micronucleus, Test System: Peripheral blood lymphocytes, Species: Sheep, Strain/Sex: Merino/female, Route: Intrarumen): active; positive |
| c1ccc(-c2ccccc2)cc1 | – | inactive; negative | – | – | inactive; negative | – | – | inactive; negative | – | – | inactive; negative | – | active; positive | active; positive | inactive; negative | inactive; negative | inactive; negative | inactive; negative | inactive; negative | inactive; negative | mutagenic call (Test System: AMES SALMONELLA TYPHIMURIUM, Strain/Indicator: TA98, Metabolic Activation: NONE, Method: STANDARD PLATE): inactive; negative; mutagenic call (Test System: AMES SALMONELLA TYPHIMURIUM, Strain/Indicator: TA98, Metabolic Activation: RAT LIVER S-9, PHENOBARBITAL AND BETA-NAPHTHOFLAVONE, Method: PREINCUBATION): inactive; negative; mutagenic call (Test System: AMES SALMONELLA TYPHIMURIUM, Strain/Indicator: TA100, Metabolic Activation: NONE, Method: STANDARD PLATE): inactive; negative; mutagenic call (Test System: AMES SALMONELLA TYPHIMURIUM, Strain/Indicator: TA100, Metabolic Activation: RAT LIVER S-9, PHENOBARBITAL AND BETA-NAPHTHOFLAVONE, Method: PREINCUBATION): inactive; negative; mutagenic call (Test System: AMES SALMONELLA TYPHIMURIUM, Strain/Indicator: TA1535, Metabolic Activation: RAT LIVER S-9, PHENOBARBITAL AND BETA-NAPHTHOFLAVONE, Method: PREINCUBATION): inactive; negative; mutagenic call [21]: inactive; negative; mutagenic call (Test System: AMES SALMONELLA TYPHIMURIUM, Strain/Indicator: TA1537, Metabolic Activation: RAT LIVER S-9, PHENOBARBITAL AND BETA-NAPHTHOFLAVONE, Method: PREINCUBATION): inactive; negative; mutagenic call (Test System: AMES SALMONELLA TYPHIMURIUM, Strain/Indicator: TA1537, Metabolic Activation: RAT, LIVER, S-9, AROCLOR 1254, Method: STANDARD PLATE): inactive; negative; mutagenic call (Test System: E. COLI, Strain/Indicator: WP2, Metabolic Activation: NONE, Method: STANDARD PLATE): inactive; negative; mutagenic call (Test System: E. COLI, Strain/Indicator: WP2, Metabolic Activation: RAT, LIVER, S-9, AROCLOR 1254, Method: STANDARD PLATE): inactive; negative; mutagenic call (Test System: E.COLI, Strain/Indicator: WP2UVRA, Metabolic Activation: NONE, Method: PREINCUBATION): inactive; negative; mutagenic call (Test System: E.COLI, Strain/Indicator: WP2UVRA, Metabolic Activation: RAT LIVER S-9, PHENOBARBITAL AND BETA-NAPHTHOFLAVONE, Method: PREINCUBATION): inactive; negative |
| CCCCCCCCCCCCOCCO | inactive; negative | inactive; negative | inactive; negative | inactive; negative | inactive; negative | inactive; negative | inactive; negative | inactive; negative | inactive; negative | inactive; negative | inactive; negative | inactive; negative | – | – | – | – | – | – | – | – | mutagenic call (End Point: IN VITRO CHROMOSOMAL ABERRATIONS, Test System: CHO-LB CELLS, Metabolic Activation: NONE): inactive; negative; mutagenic call (End Point: IN VITRO CHROMOSOMAL ABERRATIONS, Test System: CHO-LB CELLS, Metabolic Activation: RAT, LIVER, S-9, AROCLOR 1254): inactive; negative; mutagenic call (Test System: E. COLI, Strain/Indicator: WP2 UVRA, Metabolic Activation: NONE, Method: STANDARD PLATE): inactive; negative; mutagenic call (Test System: E. COLI, Strain/Indicator: WP2 UVRA, Metabolic Activation: S-9, Method: STANDARD PLATE): inactive; negative |
| Cc1cccc(N=O)c1 | – | – | – | – | – | – | – | – | – | – | – | – | – | – | – | – | – | – | – | – | mutagenic call (Test System: AMES SALMONELLA TYPHIMURIUM, Strain/Indicator: TA98, Metabolic Activation: RAT, LIVER, S-9, AROCLOR 1254, Method: PREINCUBATION): inactive; negative |
| NC(=O)NO | – | – | – | – | – | – | – | – | – | – | – | – | active; positive | – | active; positive | active; positive | active; positive | active; positive | inactive; negative | inactive; negative | mutagenic call (End Point: IN VITRO MICRONUCLEUS, Test System: CHINESE HAMSTER V79 CELLS, Metabolic Activation: NONE): active; positive; effect greater at 16 hr exposure; mutagenic call (End Point: IN VITRO MICRONUCLEUS, Test System: CHO CELLS, Metabolic Activation: RAT, LIVER, S-9, AROCLOR 1254): active; positive; mutagenic call (End Point: In vitro micronucleus, Test System: Human lymphoblastoid TK6 cells, Metabolic Activation: None): active; positive (p<0.001); mutagenic call (Test System: AMES SALMONELLA TYPHIMURIUM, Strain/Indicator: TA102, Metabolic Activation: RAT, LIVER, S-9, AROCLOR 1254, Method: STANDARD PLATE): active; positive; mutagenic call [21]: inactive; negative; mutagenic call (Test System: E. COLI, Strain/Indicator: WP2 (HCR), Metabolic Activation: NONE, Method: STANDARD PLATE): inactive; negative; mutagenic call (Test System: MOUSE LYMPHOMA, Strain/Indicator: L5178Y (TK+/TK-), Metabolic Activation: NONE, Method: MICROWELL): active; positive; mutagenic call (Test System: MOUSE LYMPHOMA, Strain/Indicator: L5178Y (TK+/TK-), Metabolic Activation: S-9, Method: MICROWELL): active; positive; mutagenic call (Test System: UDS RODENT HEPATOCYTES, Strain/Indicator: THY INCORP (NON-S-PHASE), Metabolic Activation: NONE, Method: AUTORADIOGRAPHY): active; positive |
